Each compound was assayed against T1, Human Recombinant Matriptase 2 (Homo sapiens, UniProt Q8IU80) (assay: Matriptase 2 inhibition, fluorescence based assay (Method I)). Details: Table A; Ki of Matriptase-2; read-out: Mat-2 Ki.
T1 construct: made in house
T1 sequence (Q8IU80 1-811): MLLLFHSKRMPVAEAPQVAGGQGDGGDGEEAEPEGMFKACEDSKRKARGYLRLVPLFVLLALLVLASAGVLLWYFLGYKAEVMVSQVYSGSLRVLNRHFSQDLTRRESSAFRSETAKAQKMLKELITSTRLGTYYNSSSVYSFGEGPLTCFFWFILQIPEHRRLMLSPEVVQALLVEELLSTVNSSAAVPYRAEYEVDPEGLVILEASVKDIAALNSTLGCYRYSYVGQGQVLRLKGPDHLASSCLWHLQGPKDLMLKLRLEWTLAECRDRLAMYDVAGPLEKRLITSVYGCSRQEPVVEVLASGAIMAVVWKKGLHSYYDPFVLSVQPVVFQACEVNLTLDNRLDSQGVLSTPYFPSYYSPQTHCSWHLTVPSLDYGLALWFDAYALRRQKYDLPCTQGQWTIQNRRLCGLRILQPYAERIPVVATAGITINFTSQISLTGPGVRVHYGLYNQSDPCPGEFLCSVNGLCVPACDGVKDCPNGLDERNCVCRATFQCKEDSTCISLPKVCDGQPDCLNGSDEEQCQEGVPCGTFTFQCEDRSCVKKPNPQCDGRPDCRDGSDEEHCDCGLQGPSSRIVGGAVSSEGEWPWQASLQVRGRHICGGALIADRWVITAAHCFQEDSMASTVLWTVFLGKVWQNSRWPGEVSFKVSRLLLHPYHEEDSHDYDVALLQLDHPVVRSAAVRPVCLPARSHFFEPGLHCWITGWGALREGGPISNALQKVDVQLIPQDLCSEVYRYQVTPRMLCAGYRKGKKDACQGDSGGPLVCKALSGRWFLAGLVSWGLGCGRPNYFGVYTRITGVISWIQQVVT
Assay type: biochemical
Method in brief: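 In-house recombinant enzyme (3.5 nM), preincubated 30 min with compound, then Boc-Gln-Ala-Arg-AMC substrate (62 μM) in 50 mM Tris pH 7.5, 150 mM NaCl, 0.01% gelatin, 1% DMSO, 25 °C. Fluorescence (Ex 360/Em 480 nm) read 60 min after substrate; IC50 from variable-slope sigmoidal fit of % inhibition.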

| Structure (SMILES) | Ki |
| --- | --- |
| C[C@@H](c1ccccc1)S(=O)(=O)Nc1cc(Cn2c(C(=O)O)cc3ccc(CN)nc32)c2ccccc2c1 (racemic) [Compound 73, 6-(aminomethyl)-1-{[3-(1-phenylethanesulfon-amido)naphthalen-1-yl]-methyl}-1H-pyrrolo[2,3-b]pyridine-2-carboxylic acid] | ≤ 100 nM |
| Cc1cccc(C)c1CS(=O)(=O)Nc1cc(Cn2c(C(=O)OCc3nccn3C)cc3ccc(CN)nc32)c2ccccc2c1 [Compound 191, (1-methyl-1H-imidazol-2-yl)methyl 6-(amino-methyl)-1-({3-[(2,6-dimethylphenyl)meth-anesulfonamido]naph-thalen-1-yl}methyl)-1H-pyrrolo[2,3-b]pyridine-2-carboxylate] | ≤ 100 nM |
| NCc1ccc2cc(C(=O)OCc3cncn3CC(F)(F)F)n(Cc3cc(NS(=O)(=O)Cc4ccccc4)cc4ccccc34)c2n1 [Compound 103, [1-(2,2,2-trifluoroethyl)-1H-imidazol-5-yl]methyl 6-(aminomethyl)-1-{[3-(phenylmethanesulfon-amido)naphthalen-1-yl]-methyl}-1H-pyrrolo[2,3-b]pyridine-2-carboxylate] | 100 to 500 nM |
| NCc1ccc2cc(C(=O)OCC3CCN(CC(F)F)CC3)n(Cc3cc(NS(=O)(=O)Cc4ccccc4)cc4ccccc34)c2n1 [Compound 107, [1-(2,2-difluoroethyl)-piperidin-4-yl]methyl 6-(aminomethyl)-1-{[3-(phenylmethanesulfon-amido)naphthalen-1-yl]-methyl}-1H-pyrrolo[2,3-b]pyridine-2-carboxylate] | 100 to 500 nM |

Continued, values first:

| Ki | Structure (SMILES) |
| --- | --- |
| ≤ 100 nM | NCc1ccc2cc(C(=O)OCCCN3CCOCC3)n(Cc3cc(NS(=O)(=O)Cc4ccsc4)cc4ccccc34)c2n1 [Compound 160, 3-(morpholin-4-yl)prop-yl 6-(aminomethyl)-1-({3-[(thiophen-3-yl)meth-anesulfonamido]naph-thalen-1-yl}methyl)-1H-pyrrolo[2,3-b]pyridine-2-carboxylate] |
| ≤ 100 nM | CN1CCC(CCOC(=O)c2cc3ccc(CN)nc3n2Cc2cc(NS(=O)(=O)Cc3ccccc3)cc3ccccc23)CC1 [Compound 39, 2-(1-methylpiperidin-4-yl)ethyl 6-(aminometh-yl)-1-{[3-(phenylmeth-anesulfonamido)naph-thalen-1-yl]methyl}-1H-pyrrolo[2,3-b]pyridine-2-carboxylate] |

Same assay, conditions: Table A; Ki of Matriptase-2 given as class symbols; read-out: Mat-2 Ki

| Structure (SMILES) | Ki |
| --- | --- |
| CN(C)CCOC(=O)c1cc2ccc(CN)nc2n1Cc1cc(NS(=O)(=O)CC[C@@H]2CCCN2)cc2ccccc12 [Compound 284, 2-(dimethylamino)ethyl 6-(aminomethyl)-1-[(3-{2-[(2S)-pyrrolidin-2-yl]ethanesulfonamido}-naphthalen-1-yl)methyl]-1H-pyrrolo[2,3-b]pyr-idine-2-carboxylate] | 500 to 3000 nM |
| NCc1ccc2cc(C(=O)O)n(Cc3cc(NS(=O)(=O)CCn4cnnn4)cc4ccccc34)c2n1 [Compound 226, 6-(aminomethyl)-1-({3-[2-(1H-1,2,3,4-tetrazol-1-yl)ethanesulfonamido]-naphthalen-1-yl}methyl)-1H-pyrrolo[2,3-b]pyr-idine-2-carboxylic acid] | 100 to 500 nM |
| Cc1ccccc1CS(=O)(=O)Nc1cc(Cn2c(C(=O)OCC3CCN(C)CC3)cc3ccc(CN)nc32)c2ccccc2c1 [Compound 204] | ≤ 100 nM |
| CNCCOC(=O)c1cc2ccc(CN)nc2n1Cc1cc(NS(=O)(=O)CC2CCNCC2)cc2ccccc12 [Compound 278, 2-(methylamino)ethyl 6-(aminomethyl)-1-({3-[(piperidin-4-yl)methane-sulfonamido]naphthalen-1-yl}methyl)-1H-pyr-rolo[2,3-b]pyridine-2-carboxylate] | 500 to 3000 nM |
| C[C@@H](CN1CCCCC1)OC(=O)Nc1cc(Cn2c(C(=O)O)cc3ccc(CN)nc32)c2ccccc2c1 (racemic) [Compound 339, rac-6-(aminomethyl)-1-({3-[({[(2R)-1-(piperidin-1-yl)propan-2-yl]oxy}-carbonyl)amino]naph-thalen-1-yl}methyl)-1H-pyrrolo[2,3-b]pyridine-2-carboxylic acid] | 500 to 3000 nM |

Same assay, conditions: Table B; Human Recombinant Matriptase 2, 3.5 nM enzyme, 62 μM substrate, 30 mins preincubation; read-out: Mean Ki

| Structure (SMILES) | Ki |
| --- | --- |
| CN1CCC(COC(=O)c2cc3ccc(CN)nc3n2Cc2cc(NS(=O)(=O)Cc3ccccc3)c3ccccc3c2)CC1 [Compound 2.16] | 100 to 500 nM |

From patent publication US20240400553A1, “AMINE BASED MATRIPTASE 2 INHIBITORS AND USES THEREOF” (Disc Medicine, Inc., priority 2023, published 2024)
